Laboratory results taken from patent publication US12390472B2 (SUZHOU SINOVENT PHARMACEUTICALS CO., LTD., priority 2018, dated 2025).

Legend:
EZH2 enzyme complex = EZH2 enzyme complex (Homo sapiens (Human), UniProt Q15910); assay: Test on EZH2 inhibitory activity (TR-FRET); format: biochemical; conditions: EZH2 enzyme complex 25 ng/uL, histone H3 peptide 4 uM, SAM 2 uM, 300 min; read-out: IC50 of EZH2 inhibition
WSU-DLCL2 = assay: Methylated lysine of histone-H3 (H3K27Me3) detection by ELISA, WSU-DLCL2 cells; format: cell-based; conditions: Homo sapiens, WSUDLCL2, 168 h; WSU-DLCL2, 7 days treatment, H3K27Me3 normalized to total histone-3; read-out: IC50 of cell methylation, WSU-DLCL2
Procedure: (§1) The operations for adherent cells and suspension cells cultured in 96-well plates were slightly different after they had been treated with compound (4-fold dilution 20 uM-0.009 nM, 3 duplicate wells) for 7 days, and the operations are summarized as follows: For adherent cells, after discarding the medium, 75 uL of 1-fold hypotonic lysis buffer (10 mM Tris-HCl, pH 7.5, containing halt protease inhibitor and PMSF with a final concentration of 1 mM) was added; the plate was frozen at −80° C. for at least 1 h or overnight; once the plate was taken away from the −80° C. environment, 120 uL (to a final volume of about 195 uL) of 1-fold hypotonic lysis buffer (containing protease inhibitor) was added, and the plate was thawed at room temperature and shaken for 2 min for mixing; and 8 uL (to a final volume of about 203 uL) of 2.5 M NaCl was added to each well to a final NaCl concentration of 100 mM and then the plate was shaken for an additional 2 min for mixing.
(§2) For suspension cells (final volume of medium was 100 uL/well), 25 uL of 5-fold hypotonic lysis buffer (50 mM Tris-HCl, pH 7.5, containing halt protease inhibitor and PMSF with a final concentration of 1 mM) was added, and the plate was frozen at −80° C. for at least 1 h or overnight. Once the plate was taken away from the −80° C. environment, 20 uL of 0.625 M NaCl was added to each well to a final NaCl concentration of about 100 mM, and the mixture was mixed well.
(§3) 75 uL or 100 uL of sample (with duplicate wells provided) was added to two 96-well ELISA plates (ThermoFisher Scientific; Immulon 4HBX 3885) and the plates were coated with total protein lysate and incubated overnight at 4° C. 50 uL of lysate was retained for protein quantitation if necessary. The sealing of the plates must be ensured. The plates were washed twice with 300 uL of 1×PBST (PBS containing 0.05% Tween 20) per well. Each well was blocked with 300 uL of dilution (PBS+2% BSA+0.05% Tween 20), incubated for 2 h at room temperature, and washed twice with 1×PBST. Primary antibodies were diluted with a dilution solution containing 1% BSA+0.05% Tween 20. 75-100 uL of anti-H3K27Me3 antibody (CST; 9733; 50% glycerol stock, 1:1,000) or anti-total histone-3 antibody (Abcam; ab1791; 50% glycerol stock, 1:10,000) was added to each well. The plates were incubated for 90 min at room temperature or incubated overnight at 4° C. The plates were washed three times with 1×PBST. 75-100 uL of anti-Rb-IgG-HRP secondary antibody (Cell Signaling Technology; 7074) was added per well, 1:2000 diluted secondary antibody for anti-H3K 27Me3 plate and 1:6000 diluted secondary antibody for anti-histone total histone-3 plate. The plates were incubated at room temperature for 90 min. The plate assayed with anti-histone-3 antibody was used to normalize the data for the corresponding plate assayed with anti-H3K 27me3. The plates must be washed at least three times with 1×PBST after primary or secondary antibody incubation. The plates were assayed by adding 75-100 uL of 3,3′,5,5′-tetramethylbenzidine substrate (CST or ThermoFisher Scientific; TMBS) per well and incubated away from light for 30 min at 37° C. The reaction was terminated by adding 100 uL of 0.5 M H2SO4 per well. The absorbance was read at 450 nm. Curve fitting was performed using Graph Pad program.

Pfeiffer = assay: Methylated lysine of histone-H3 (H3K27Me3) detection by ELISA, Pfeiffer cells; format: cell-based, human; conditions: Homo sapiens, 168 h, 7 days treatment, H3K27Me3 normalized to total histone-3, read-out: IC50 of cell methylation, Pfeiffer
Procedure: as §1, §2, §3

Chain of EZH2 enzyme complex (Q15910 whole entry): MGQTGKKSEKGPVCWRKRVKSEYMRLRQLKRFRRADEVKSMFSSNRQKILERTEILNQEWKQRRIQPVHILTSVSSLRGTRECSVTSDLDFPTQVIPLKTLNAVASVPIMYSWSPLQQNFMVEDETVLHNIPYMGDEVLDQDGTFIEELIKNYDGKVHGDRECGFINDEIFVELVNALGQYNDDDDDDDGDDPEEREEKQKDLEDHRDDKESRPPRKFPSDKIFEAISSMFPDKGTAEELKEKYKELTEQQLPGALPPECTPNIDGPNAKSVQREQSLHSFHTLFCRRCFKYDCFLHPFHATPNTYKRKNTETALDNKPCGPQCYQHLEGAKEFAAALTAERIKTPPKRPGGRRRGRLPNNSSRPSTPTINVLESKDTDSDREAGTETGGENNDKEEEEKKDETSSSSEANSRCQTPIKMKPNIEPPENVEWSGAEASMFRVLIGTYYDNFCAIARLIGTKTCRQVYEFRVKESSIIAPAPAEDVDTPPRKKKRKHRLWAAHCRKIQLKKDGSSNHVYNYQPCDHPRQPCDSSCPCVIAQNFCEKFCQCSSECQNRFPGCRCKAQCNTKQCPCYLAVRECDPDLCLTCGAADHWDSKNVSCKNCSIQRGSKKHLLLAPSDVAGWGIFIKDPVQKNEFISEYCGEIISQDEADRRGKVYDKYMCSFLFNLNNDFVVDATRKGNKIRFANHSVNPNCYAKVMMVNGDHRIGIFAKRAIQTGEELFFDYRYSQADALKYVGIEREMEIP
Chain of EZH2 enzyme complex (O75530 whole entry partner): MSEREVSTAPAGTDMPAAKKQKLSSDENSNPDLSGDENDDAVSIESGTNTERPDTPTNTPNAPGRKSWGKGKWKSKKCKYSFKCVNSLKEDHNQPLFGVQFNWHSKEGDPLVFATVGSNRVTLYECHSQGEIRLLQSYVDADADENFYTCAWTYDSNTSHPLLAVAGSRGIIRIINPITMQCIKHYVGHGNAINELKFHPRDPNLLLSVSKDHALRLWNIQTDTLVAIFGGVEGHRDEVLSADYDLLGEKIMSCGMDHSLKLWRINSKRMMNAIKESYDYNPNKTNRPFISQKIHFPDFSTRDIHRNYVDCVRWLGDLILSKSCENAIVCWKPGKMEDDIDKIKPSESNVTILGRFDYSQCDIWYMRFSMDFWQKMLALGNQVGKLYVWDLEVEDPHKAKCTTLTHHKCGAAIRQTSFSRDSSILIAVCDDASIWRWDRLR
Chain of EZH2 enzyme complex (Q15022 whole entry partner): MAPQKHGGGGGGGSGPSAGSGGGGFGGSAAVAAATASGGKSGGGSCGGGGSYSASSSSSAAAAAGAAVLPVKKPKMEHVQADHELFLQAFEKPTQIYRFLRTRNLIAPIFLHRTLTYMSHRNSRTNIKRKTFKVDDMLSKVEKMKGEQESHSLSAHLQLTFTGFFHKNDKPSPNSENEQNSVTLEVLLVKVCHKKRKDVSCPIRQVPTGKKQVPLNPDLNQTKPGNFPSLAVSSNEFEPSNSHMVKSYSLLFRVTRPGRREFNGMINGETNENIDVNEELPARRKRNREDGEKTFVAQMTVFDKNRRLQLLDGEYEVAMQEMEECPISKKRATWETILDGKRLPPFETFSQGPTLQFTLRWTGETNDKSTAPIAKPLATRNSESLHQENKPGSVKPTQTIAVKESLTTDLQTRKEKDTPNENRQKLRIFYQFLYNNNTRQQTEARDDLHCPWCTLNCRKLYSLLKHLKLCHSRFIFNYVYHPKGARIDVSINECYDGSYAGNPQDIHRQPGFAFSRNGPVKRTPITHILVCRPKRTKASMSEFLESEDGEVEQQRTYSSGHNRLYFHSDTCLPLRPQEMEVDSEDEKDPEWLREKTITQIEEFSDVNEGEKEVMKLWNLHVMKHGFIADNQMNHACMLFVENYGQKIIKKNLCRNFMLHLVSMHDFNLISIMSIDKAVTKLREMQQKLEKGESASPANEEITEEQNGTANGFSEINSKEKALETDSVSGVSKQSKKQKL

Row | Compound | IC50 (EZH2 enzyme complex) | IC50 (WSU-DLCL2) | IC50 (Pfeiffer)
1 | CCN(c1cc(O[C@H]2C[C@H](CN3CCOCC3)C2)cc(C(=O)NCc2c(C)cc(C)[nH]c2=O)c1C)C1CCOCC1 [Example 7, N-((4,6-dimethyl-2-oxo-1,2-dihydropyridin-3-yl)methyl)-3-(ethyl(tetrahydro-2H-pyran-4-yl)amino)-2-methyl-5-(trans-3-(morpholinylmethyl)cyclobutoxy)benzamide] | 10 to 100 nM | 50 to 500 nM | < 50 nM
2 | CCN(c1cc(C2CC2CN2CCN(CC(C)(C)C)CC2)cc(C(=O)NCc2c(C)cc(C)[nH]c2=O)c1C)C1CCOCC1 (stereo not shown) [Example 76, N-((4,6-dimethyl-2-oxo-1,2-dihydropyridin-3-yl)methyl)-3-(ethyl(tetrahydro-2H-pyran-4-yl)amino)-2-methyl-5-(2-((4-neopentylpiperazin-1-yl)methyl)cyclopropyl)benzamide] | 10 to 100 nM | 50 to 500 nM | < 50 nM
3 | CCN(c1cc(OC2CC(C)C2)cc(C(=O)NCc2c(C)cc(C)[nH]c2=O)c1C)C1CCOCC1 (stereo not shown) [Example 2, N-((4,6-dimethyl-2-oxo-1,2-dihydropyridin-3-yl)methyl)-3-(ethyl(tetrahydro-2H-pyran-4-yl)amino)-2-methyl-5-(3-methylcyclobutoxy)benzamide] | 10 to 100 nM | 500 to 1000 nM | 50 to 500 nM
4 | CCN(c1cc(OC2CC(F)(F)C2)cc(C(=O)NCc2c(C)cc(C)[nH]c2=O)c1C)C1CCOCC1 [Example 3, 5-(3,3-difluorocyclobutoxy)-N-((4,6-dimethyl-2-oxo-1,2-dihydropyridin-3-yl)methyl)-3-(ethyl(tetrahydro-2H-pyran-4-yl)amino)-2-methylbenzamide] | 10 to 100 nM | 50 to 500 nM | < 50 nM
5 | CCN(c1cc(C2CC2)cc(C(=O)NCc2c(C)cc(C)[nH]c2=O)c1C)C1CCOCC1 [Example 14, 5-cyclopropyl-N-((4,6-dimethyl-2-oxo-1,2-dihydropyridin-3-yl)methyl)-3-(ethyl(tetrahydro-2H-pyran-4-yl)amino)-2-methylbenzamide] | – | 50 to 500 nM | < 50 nM
6 | CCN1CCN([C@H]2C[C@@H](Oc3cc(C(=O)NCc4c(C)cc(C)[nH]c4=O)c(C)c(N(CC)C4CCOCC4)c3)C2)CC1 [Example 23, N-((4,6-dimethyl-2-oxo-1,2-dihydropyridin-3-yl)methyl)-3-(ethyl(tetrahydro-2H-pyran-4-yl)amino)-5-(cis-3-(4-ethylpiperazin-1-yl)cyclobutoxy)-2-methylbenzamide] | 10 to 100 nM | > 1000 nM | < 50 nM
7 | CCN(c1cc(C2CC2CN2CCCCC2)cc(C(=O)NCc2c(C)cc(C)[nH]c2=O)c1C)C1CCOCC1 (stereo not shown) [Example 77, N-((4,6-dimethyl-2-oxo-1,2-dihydropyridin-3-yl)methyl)-3-(ethyl(tetrahydro-2H-pyran-4-yl)amino)-2-methyl-5-(2-(piperidin-1-ylmethyl)cyclopropyl)benzamide] | 10 to 100 nM | 50 to 500 nM | < 50 nM
8 | CCN(c1cc(O[C@H]2C[C@H](N3CCC(C)CC3)C2)cc(C(=O)NCc2c(C)cc(C)[nH]c2=O)c1C)C1CCOCC1 [Example 37, N-((4,6-dimethyl-2-oxo-1,2-dihydropyridin-3-yl)methyl)-3-(ethyl(tetrahydro-2H-pyran-4-yl)amino)-2-methyl-5-(trans-3-(4-methylpiperidin-1-yl)cyclobutoxy)benzamide] | < 10 nM | 50 to 500 nM | < 50 nM
9 | CCN(c1cc(OC2CC(N3CCOCC3)C2)cc(C(=O)NCc2c(C)cc(C)[nH]c2=O)c1C)[C@H]1CC[C@H](N(C)CCOC)CC1 (stereo partly drawn) [Example 34, N-((4,6-dimethyl-2-oxo-1,2-dihydropyridin-3-yl)methyl)-3-(ethyl(trans-4-((2-methoxyethyl)(methyl)amino)cyclohexyl)amino)-2-methyl-5-(3-morpholinylcyclobutoxy)benzamide] | 10 to 100 nM | 500 to 1000 nM | < 50 nM
10 | CCN(c1cc(O[C@H]2C[C@@H](N3CCC(C)CC3)C2)cc(C(=O)NCc2c(C)cc(C)[nH]c2=O)c1C)C1CCOCC1 [Example 56, N-((4,6-dimethyl-2-oxo-1,2-dihydropyridin-3-yl)methyl)-3-(ethyl(tetrahydro-2H-pyran-4-yl)amino)-2-methyl-5-(cis-3-(4-methylpiperidin-1-yl)cyclobutoxy)benzamide] | 10 to 100 nM | 50 to 500 nM | 50 to 500 nM
11 | Cc1cc(C)c(CNC(=O)c2cc(O[C@H]3C[C@H](N4C[C@@H](C)O[C@@H](C)C4)C3)cc(NC3CCOC3)c2C)c(=O)[nH]1 (stereo partly drawn) [Example 58, N-((4,6-dimethyl-2-oxo-1,2-dihydropyridin-3-yl)methyl)-5-(trans-3-(cis-2,6-dimethylmorpholino)cyclobutoxy)-2-methyl-3-((tetrahydrofuran-3-yl)amino)benzamide] | > 1000 nM | > 1000 nM | > 1000 nM
12 | CCN(c1cc(C2CC2CN2C[C@@H](C)O[C@@H](C)C2)cc(C(=O)NCc2c(C)cc(C)[nH]c2=O)c1Cl)C1CCOCC1 (stereo partly drawn) [Example 85, 2-chloro-N-((4,6-dimethyl-2-oxo-1,2-dihydropyridin-3-yl)methyl)-5-(2-(((2S,6R)-2,6-dimethylmorpholinyl)methyl)cyclopropyl)-3-(ethyl(tetrahydro-2H-pyran-4-yl)amino)benzamide] | 100 to 1000 nM | 500 to 1000 nM | –
13 | CCN(c1cc(O[C@H]2C[C@H](N3C[C@@H](C)O[C@@H](C)C3)C2)cc(C(=O)NCc2c(C)cc(C)[nH]c2=O)c1C)[C@H]1CC[C@H](N(C)CCOC)CC1 [Example 52, N-((4,6-dimethyl-2-oxo-1,2-dihydropyridin-3-yl)methyl)-5-(trans-3-(cis-2,6-dimethylmorpholinyl)cyclobutoxy)-3-(ethyl(trans-4-((2-methoxyethyl)(methyl)amino)cyclohexyl)amino)-2-methylbenzamide] | 10 to 100 nM | 500 to 1000 nM | –
14 | CCN(c1cc(C2CC2CN2CCOCC2)cc(C(=O)NCc2c(C)cc(C)[nH]c2=O)c1C)[C@H]1CC[C@H](N(C)CCOC)CC1 (stereo partly drawn) [Example 82, N-((4,6-dimethyl-2-oxo-1,2-dihydropyridin-3-yl)methyl)-3-(ethyl(trans-4-((2-methoxyethyl)(methyl)amino)cyclohexyl)amino)-2-methyl-5-(2-(morpholinylmethyl)cyclopropyl)benzamide] | 10 to 100 nM | 50 to 500 nM | –
15 | CCN(c1cc(C2CC2CN2CCNCC2)cc(C(=O)NCc2c(C)cc(C)[nH]c2=O)c1Cl)C1CCOCC1 (stereo not shown) [Example 83, 2-chloro-N-((4,6-dimethyl-2-oxo-1,2-dihydropyridin-3-yl)methyl)-3-(ethyl(tetrahydro-2H-pyran-4-yl)amino)-5-(2-(piperazin-1-ylmethyl)cyclopropyl)benzamide] | 10 to 100 nM | > 1000 nM | –
16 | CCN(c1cc(O[C@H]2C[C@@H](N3C[C@@H](C)O[C@@H](C)C3)C2)cc(C(=O)NCc2c(C)cc(C)[nH]c2=O)c1C)[C@H]1C[C@@H](C)O[C@@H](C)C1 [Example 33] | 100 to 1000 nM | – | 50 to 500 nM
17 | CCN(c1cc(C2CC2CN2CCN(C(=O)OC)CC2)cc(C(=O)NCc2c(C)cc(C)[nH]c2=O)c1C)C1CCOCC1 (stereo not shown) [Example 80, methyl 4-((2-(3-(((4,6-dimethyl-2-oxo-1,2-dihydropyridin-3-yl)methyl)carbamoyl)-5-(ethyl(tetrahydro-2H-pyran-4-yl)amino)-4-methylphenyl)cyclopropyl)methyl)piperazine-1-carboxylate] | 10 to 100 nM | < 50 nM | –
18 | CCN(c1cc(O[C@H]2C[C@H](N3CC4CC(C3)O4)C2)cc(C(=O)NCc2c(C)cc(C)[nH]c2=O)c1Cl)C1CCOCC1 [Example 55] | 10 to 100 nM | 50 to 500 nM | –
